Where two headings read alike, the source gives them in different places.
Columns and labels:
purified tubulin = assay: Inhibition of tubulin polymerization assay; assay type: biochemical, bovine; conditions: for IC50: read-out: IC50 In Vitro Inhibition of Tubulin Polymerization, 1.5 mg/ml tubulin, preincubated 15 minutes at 37° C., GTP-induced
Procedure: IC50 values for tubulin polymerization were determined according to a previously described procedure (Bai et al, Cancer Research, 1996). Purified tubulin is obtained from bovine brain cells as described in Hamel and Lin (Hamel and Lin, Biochemistry, 1984). Various amounts of inhibitor were preincubated for 15 minutes at 37° C. with purified tubulin. After the incubation period, the reaction was cooled and GTP was added to induce tubulin polymerization. Polymerization was then monitored in a Gilford spectrophotometer at 350 nm. The final reaction mixtures (0.25 ml) contained 1.5 mg/ml tubulin, 0.6 mg/ml microtubule-associated proteins (MAPs), 0.5 mM GTP, 0.5 mM MgCl2, 4% DMSO and 0.1M 4-morpholineethanesulfonate buffer (MES, pH 6.4).

BXPC-3 = assay: In vitro cytotoxicity against human cancer cell lines (SRB); assay type: cell-based; conditions: pancreas; 48 hours incubation
Procedure: (§1) Briefly, the cell suspensions, diluted according to the particular cell type and the expected target cell density (5,000–40,000 cells per well based on cell growth characteristics), were added by pipet (100 μl) to 96-well microtiter plates. Inoculates were allowed a preincubation time of 24–28 hours at 37° C. for stabilization. Incubation with the inhibitor compounds lasted for 48 hours in 5% CO2 atmosphere and 100% humidity. Determination of cell growth was performed by in situ fixation of cells, followed by staining with a protein-binding dye sulforhodamine B (SRB), which binds to the basic amino acids of cellular macromolecules. The solubilized stain was measured spectrophotometrically.
(§2) Compounds were evaluated in terms of growth inhibitory activity against several human cancer cell lines including: central nervous system (“CNS”, SF-295 or SF-268), pancreas (BXPC-3), non-small cell lung cancer (“lung-NSC”, NCI-H460), breast (MCF-7), colon (KM20L2), ovarian (OVCAR-3), pharyngeal (FADU), or prostate (DU-145).

DU-145 = assay: as above; assay type: cell-based; conditions: prostate; 48 hours incubation
Procedure: as §1, §2

NCI-H460 = assay: as above; assay type: cell-based; conditions: lung-NSC; 48 hours incubation
Procedure: as §1, §2

SF-295 = assay: as above; assay type: cell-based; conditions: CNS; 48 hours incubation; unstarred values
Procedure: as §1, §2

FADU = assay: as above; assay type: cell-based; conditions: pharyngeal; 48 hours incubation
Procedure: as §1, with “The activity of several compounds were tested against a variety of cell lines derived from human tumors, using an assay system similar to a procedure previously described (Monks et al, J. Natl. Cancer Inst., 1991). Briefly,” for “Briefly,”
as §2

OVCAR-3 = assay: as above; assay type: cell-based; conditions: ovarian; 48 hours incubation
Procedure: as §1, with “The activity of several compounds were tested against a variety of cell lines derived from human tumors, using an assay system similar to a procedure previously described (Monks et al, J. Natl. Cancer Inst., 1991). Briefly,” for “Briefly,”
as §2

In vitro cytotoxicity = assay type: cell-based
[1] = system: murine hemangioendothelioma MHEC-5T cell line; assay: In vitro antiproliferative activity, MTT assay; assay type: cell-based
Procedure: The following compounds were tested for in vitro antiproliferative activity against the murine hemangioendothelioma MHEC-5T cell line using a standard MTT assay (see Mosman, J. Immunol. Methods, 1983). In actively proliferating cells, an increase in MTT conversion is spectrophotometrically quantified by the reduction of MTT (3-[4,5-dimethylthiazol-2-yl]-2,5-diphenyl tetrazolium bromide) to the insoluble formazan dye by enzymes associated with metabolic activity. A compound with growth inhibitory activity will cause a reduction in dye formation relative to cells exposed to a vehicle control.

[2] = system: MHEC-5T hemangioendothelioma tumor model; assay: Inhibition of tumor blood flow, Fluorescent Bead Assay; assay type: in vivo; conditions: single i.p. injection, 24 hours post-treatment, SCID mice
Procedure: The antivascular effects of the diphosphate BbF, Oxi-com 223, was assessed in tumor-bearing mice using a Fluorescent Bead Assay. A MHEC-5T hemangioendothelioma tumor model was established by subcutaneous injection of 0.5×10^6 cultured transformed cell murine myocardial vascular endothelial cell line (“MHEC5-T”) cells into the right flank of Fox Chase CB-17 Severe Combined Immunodeficient (“SCID”) mice. […] At 24 hours post-treatment, mice were injected intravenously with 0.25 ml of diluted FluoSphere beads (1:6 in physiological saline) in the tail vein, sacrificed after 3 minutes, and tumor was excised for cryosectioning. Tumor cryosections at a thickness of 8 μm were directly examined using quantitative fluorescent microscopy. Blood vessels were indicated by blue fluorescence from injected beads. For quanitification, image analysis of 3 sections from three tumors treated in each group were examined and vascular shutdown was expressed as vessel area (mm^2) per tumor tissue area (mm^2) as a percentage of the control (“% VAPM”). Compounds of the present invention were tested for antivascular effects at two dosages (100 mg/kg and 10 mg/kg) using the same Fluorescent Bead Assay as in the previous experiment.

KM20L2 = assay: In vitro cytotoxicity against human cancer cell lines (SRB); assay type: cell-based; conditions: colon; 48 hours incubation
Procedure: as §1, §2

MCF-7 = assay: as above; assay type: cell-based; conditions: breast; 48 hours incubation
Procedure: as §1, §2

SF-268 = assay: as above; assay type: cell-based; conditions: CNS; 48 hours incubation; values marked *
Procedure: as §1, §2

[3] = system: human breast cancer MDA-MB-231 model; assay: Tumor growth control in vivo; conditions: 400 mg/kg i.p. in saline, SCID mice, Days 1, 2 and 6 post-treatment
Procedure: The antitumor activity of BbT prodrug 8 was assessed in female tumor-bearing mice by measuring its effects on tumor volume in comparison with CA4P. A human breast cancer MDA-MB-231 model was established by subcutaneous injection of cultured M DA-MB-231 cells (1×10^6) in Fox Chase CB-17 SCID mice.
Mice were administered CA4P or BbT prodrug in saline carrier at 400 mg/kg by intraperitoneal (i.p.) injection after 1 week of MDA-MB inoculation. Saline carrier only was used as the control treatment. On Days 1, 2 and 6 post-treatment, tumors were measured by width and length by a caliber. Tumor volume was calculated according to the following formula: Length×Width^2×0.4. The relative anti-tumor effects are illustrated in FIG. 9.

[4] = 5 days, read-out: IC50 at 5 days
[5] = read-out: IC50 at 1 hour, 1 hour

COc1ccc2c(-c3ccc(OC)c(O)c3O)c(C(=O)c3cc(OC)c(OC)c(OC)c3)oc2c1 [Compound 31, 3-(2″,3″-dihydroxy-4″-methoxyphenyl)-6-methoxy-2-(3′,4′,5′-trimethoxybenzoyl)benzo[b]furan]
IC50 (purified tubulin): 1000 to 4000 nM

COc1ccc2c(-c3ccc(OC)c(O)c3O)coc2c1 [Compound 28, 3-(2′,3′-hydroxy-4′-methoxyphenyl)-6-methoxybenzo[b]furan]
IC50 (purified tubulin): 1000 to 4000 nM

C#C/C=C\C#CC(=O)c1cc(OC)c(OC)c(OC)c1 [Enediyne, 47, 1-(3,4,5-trimethoxybenzoyl)-(Z)-3-ene-1,5-hexadiyne]
inhibition of tubulin polymerization (in words) (purified tubulin): excellent inhibition of tubulin polymerization | GI50 for Cell Line BXPC-3 (BXPC-3): 1.4 µg/mL | GI50 for Cell Line DU-145 (DU-145): 0.54 µg/mL | GI50 for Cell Line NCI-H460 (NCI-H460): 1.7 µg/mL | GI50 for Cell Line SF-295 (SF-295): 1.7 µg/mL | GI50 for Cell Line FADU (FADU): 0.95 µg/mL | GI50 for Cell Line OVCAR-3 (OVCAR-3): 0.53 µg/mL | cytotoxicity (in words) (In vitro cytotoxicity): strong cytotoxicity

COc1ccc2c(C(=O)c3cc(OC)c(OC)c(OC)c3)c(-c3ccc(OC)c(OP(=O)([O-])[O-])c3)oc2c1.[Na+].[Na+] [Oxi-com 223, 33, 3-(3′,4′,5′-trimethoxybenzoyl)-2-(3′-disodiumphosphate-4′-methoxyphenyl)-6-methoxybenzo[b]furan]
IC50 [1, 4]: > 1400 nM | IC50 [1, 5]: > 50000 nM | % VAPM at 10 mg/kg dose ([2]; 10 mg/kg): 10% | % VAPM at 100 mg/kg dose ([2]; 100 mg/kg): 51%

COc1ccc2c(C(=O)c3cc(OC)c(OC)c(OC)c3)c(-c3ccc(OC)c(OP(=O)([O-])[O-])c3)oc2c1.[Na+].[Na+] [Oxi-com 195, 19, 2-(3″-disodiumphosphate-4″-methoxyphenyl)-6-methoxy-3-(3′,4′,5′-trimethoxybenzoyl)benzo[b]furan]
IC50 (purified tubulin): 4000 to 10000 nM | GI50 for Cell Line BXPC-3 (BXPC-3): 2.3 µg/mL | GI50 for Cell Line DU-145 (DU-145): 0.05 µg/mL | GI50 for Cell Line KM20L2 (KM20L2): 3.8 µg/mL | GI50 for Cell Line MCF-7 (MCF-7): 0.042 µg/mL | GI50 for Cell Line NCI-H460 (NCI-H460): 0.05 µg/mL | GI50 for Cell Line SF-268 (SF-268): *0.062 μg/ml | IC50 [1, 4]: 100 nM | IC50 [1, 5]: > 25000 nM

COc1ccc2c(C(=O)c3cc(OC)c(OC)c(OC)c3)c(-c3ccc(OC)c(OP(=O)([O-])[O-])c3)sc2c1.[Na+].[Na+] [Oxi-com 140, 8, 3-(3′,4′,5′-trimethoxybenzoyl)-2-(3′-sodiumphosphate-4′-methoxyphenyl)-6-methoxybenzo[b]thiophene]
GI50 for Cell Line BXPC-3 (BXPC-3): 0.35 µg/mL | GI50 for Cell Line DU-145 (DU-145): 0.045 µg/mL | GI50 for Cell Line KM20L2 (KM20L2): 0.22 µg/mL | GI50 for Cell Line MCF-7 (MCF-7): 0.028 µg/mL | GI50 for Cell Line NCI-H460 (NCI-H460): 0.035 µg/mL | GI50 for Cell Line SF-295 (SF-295): 0.11 µg/mL | IC50 [1, 4]: 129 nM | IC50 [1, 5]: > 11200 nM | effect on tumor growth (tumor volume) relative to control treatment [3]: significantly inhibited tumor growth

COc1ccc(/C=C\c2cc(OC)c(OC)c(OC)c2)cc1OP(=O)([O-])[O-].[Na+].[Na+] [CA4P, Combretastatin A-4 Disodium Phosphate Prodrug, reference compound]
IC50 [1, 4]: 2 nM | IC50 [1, 5]: 800 nM | effect on tumor growth (tumor volume) relative to control treatment [3]: significantly inhibited tumor growth

Source: US7091240B2, “Tubulin binding ligands and corresponding prodrug constructs” (Oxigene, Inc., priority 2000, dated 2006)
